Test results published in US5639474A (Hanmi Pharm. Ind., Ltd., priority 1993, dated 1997).

Conditions: for Change in contents (per capsule): Initial content: cosurfactant content in soft capsule
From the text: The membrane permeation property of dimethylisosorbide over the storage period at the room temperature was examined for the soft capsules prepared using dimethylisosorbide (ARLASOLVE® DMI) as a cosurfactant according to the present invention and then compared with the membrane permeation properties of ethanol, propylene glycol, Transcutol (diethylene glycol monoethyl ether) and Glycofurol (tetrahydrofurfuryl alcohol polyethylene glycol ether). The content of the cosurfactant in each soft capsule preparation was analyzed by gas chromatography. The components and their constitutional ratios in the compositions used in this experiment are given in the following Table 1 and the experiment results are given in the following Table 2.
Note: Conditions of gas chromatography for each cosurfactant
Column: Ultra 2 (Cross-linked 2% phenylmethyl silicone gun phase, 25 m×0.32 mm, thickness 0.52 μm)
Column temperature: 230° C. (Isothermal)
Detector: FID (Temperature: 270° C.)
Injection temperature: 275° C.
Carrier gas: He (Partition ratio 80:1)
Internal standard: Octyl alcohol
Column: HP-20M (Carbowax 20M) (25 m×0.32 mm, film thickness 0.3 μm)
Column temperature: 30° C. (Isothermal)
Detector: FID (Temperature: 200° C.)
Injection temperature: 150° C.
Internal standard: Diethyl ether
Column temperature: 180° C. (Isothermal)
Detector: FID (Temperature: 240° C.)
Injection temperature: 240° C.
Internal standard: Pentadecanoic acid methyl ester
Column: Ultra 2 (Cross-linked 5% phenylmethyl silicone gun phase, 25 m×0.32 mm, thickness 0.52 μm)
Injection temperature: 270° C.
Detector: FID (Temperature: 270° C.) p1 Injection temperature: 270° C.
Internal standard: Dimethylisosorbide

Compound	Change in contents (per capsule): Initial content	Change in contents (per capsule): Storage period 2 days (room temperature)	Change in contents (per capsule): Storage period 14 days (room temperature)	Change in contents (per capsule): Storage period 5 days (room temperature, 5 days)
tetrahydrofurfuryl alcohol polyethylene glycol ether [Glycofurol]	19.8	8.2	3.2	
CC(O)CO (stereo not drawn) [Propylene glycol, propylene glycol]	19.8	3.6		0.9
CCOCCOCCO [Transcutol, diethylene glycol monoethyl ether]	19.8	7.3	2.7	
